Numbering of substitutions follows the chain as printed.
Tests used:
hPKG Iβ 1–351 G306E = molecular target: T1, hPKG Iβ 1–351 G306E (Homo sapiens, UniProt Q13976, G291E); assay: Competitive SPR, PKG Iβ R domain with site B disabled; format: binding; settings: own affinity data
T1 sequence (Q13976 1-351 isoform Q13976-2 G306E): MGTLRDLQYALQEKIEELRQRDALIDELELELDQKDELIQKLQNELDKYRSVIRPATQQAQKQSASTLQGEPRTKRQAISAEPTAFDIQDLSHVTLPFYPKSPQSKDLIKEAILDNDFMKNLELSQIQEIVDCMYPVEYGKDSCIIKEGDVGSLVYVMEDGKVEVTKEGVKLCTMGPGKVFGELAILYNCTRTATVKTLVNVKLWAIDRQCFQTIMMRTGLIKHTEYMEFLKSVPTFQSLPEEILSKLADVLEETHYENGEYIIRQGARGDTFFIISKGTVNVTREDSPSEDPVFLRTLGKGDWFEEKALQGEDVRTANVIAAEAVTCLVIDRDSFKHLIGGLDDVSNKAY

hPKG II 1–762 = molecular target: T2, hPKG II 1–762 (Homo sapiens, UniProt Q13237); assay: Microfluidic mobility-shift kinase activation assay, PKG II; settings: for Isotype selectivity in activating, PKG II: selective in activating PKG II; for Activation constant Ka ± SEM: full-length PKG II, microfluidic mobility shift assay
T2 sequence (Q13237 1-762): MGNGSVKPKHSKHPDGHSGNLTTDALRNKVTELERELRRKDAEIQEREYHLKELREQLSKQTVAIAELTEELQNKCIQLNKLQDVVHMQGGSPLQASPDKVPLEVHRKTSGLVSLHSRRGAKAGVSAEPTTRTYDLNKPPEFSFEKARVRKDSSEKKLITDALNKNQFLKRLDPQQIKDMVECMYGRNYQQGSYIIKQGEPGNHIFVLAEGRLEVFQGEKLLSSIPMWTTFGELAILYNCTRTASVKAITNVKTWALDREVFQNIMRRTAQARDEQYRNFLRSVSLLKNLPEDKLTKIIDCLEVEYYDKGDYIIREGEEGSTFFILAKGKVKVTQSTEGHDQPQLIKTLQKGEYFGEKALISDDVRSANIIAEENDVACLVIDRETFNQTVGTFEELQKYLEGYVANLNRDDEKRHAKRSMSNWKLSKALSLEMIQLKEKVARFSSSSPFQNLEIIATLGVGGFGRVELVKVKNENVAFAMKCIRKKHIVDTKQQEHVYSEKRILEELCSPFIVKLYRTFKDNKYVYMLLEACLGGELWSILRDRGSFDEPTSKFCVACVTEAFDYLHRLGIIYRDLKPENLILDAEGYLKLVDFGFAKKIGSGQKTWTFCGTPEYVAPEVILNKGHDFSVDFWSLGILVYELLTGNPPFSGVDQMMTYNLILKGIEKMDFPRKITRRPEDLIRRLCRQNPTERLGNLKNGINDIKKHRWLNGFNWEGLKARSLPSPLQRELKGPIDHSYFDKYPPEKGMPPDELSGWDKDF

PKG II = settings: read-out: Activation constant (previous activation data); cited from earlier work
hPKG Iβ 5–676 = molecular target: T3, hPKG Iβ 5–676 (Homo sapiens, UniProt Q13976); assay: Microfluidic mobility-shift kinase activation assay, PKG Iβ; settings: for Activation constant Ka ± SEM: full-length PKG Iβ, microfluidic mobility shift assay
T3 sequence (Q13976 5-686 isoform Q13976-2): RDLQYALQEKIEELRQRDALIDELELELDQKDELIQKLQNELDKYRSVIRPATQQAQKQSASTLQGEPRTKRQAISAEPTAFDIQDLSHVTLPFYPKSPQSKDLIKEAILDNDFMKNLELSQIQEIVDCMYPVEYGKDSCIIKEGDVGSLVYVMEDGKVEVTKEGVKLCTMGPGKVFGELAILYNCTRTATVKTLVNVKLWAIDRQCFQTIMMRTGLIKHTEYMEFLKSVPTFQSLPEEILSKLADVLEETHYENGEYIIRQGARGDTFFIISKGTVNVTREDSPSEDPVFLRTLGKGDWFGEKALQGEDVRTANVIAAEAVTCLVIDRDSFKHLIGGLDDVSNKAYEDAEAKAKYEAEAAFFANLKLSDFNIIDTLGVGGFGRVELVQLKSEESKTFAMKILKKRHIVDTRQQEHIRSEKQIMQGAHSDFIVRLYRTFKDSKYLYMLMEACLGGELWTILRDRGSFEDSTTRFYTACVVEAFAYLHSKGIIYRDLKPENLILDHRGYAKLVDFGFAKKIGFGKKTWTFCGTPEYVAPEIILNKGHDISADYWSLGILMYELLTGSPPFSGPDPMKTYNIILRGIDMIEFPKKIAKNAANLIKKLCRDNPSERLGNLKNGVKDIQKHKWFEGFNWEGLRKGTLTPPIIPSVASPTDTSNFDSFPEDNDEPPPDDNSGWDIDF

hPKG II 41–418 wt = molecular target: T4, hPKG II 41–418 wt (Homo sapiens, UniProt Q13237); assay: Competitive SPR; format: binding; settings: for Isotype selectivity in binding, PKG II: selective in binding PKG II
T4 sequence (Q13237 41-418): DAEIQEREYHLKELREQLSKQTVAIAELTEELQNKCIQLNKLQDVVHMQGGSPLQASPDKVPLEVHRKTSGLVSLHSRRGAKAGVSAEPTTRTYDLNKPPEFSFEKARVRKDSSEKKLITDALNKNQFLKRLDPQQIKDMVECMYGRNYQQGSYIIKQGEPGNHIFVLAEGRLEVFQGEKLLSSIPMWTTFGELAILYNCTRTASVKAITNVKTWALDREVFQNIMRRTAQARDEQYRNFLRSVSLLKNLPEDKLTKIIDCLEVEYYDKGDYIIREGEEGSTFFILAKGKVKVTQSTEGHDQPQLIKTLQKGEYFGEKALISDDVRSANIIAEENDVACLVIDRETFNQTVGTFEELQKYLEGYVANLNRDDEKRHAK

PKG I = PKG I preincubated with [3H]cGMP, cited from earlier work
PKG Iβ = settings: read-out: Activation constant (previous activation data); cited from earlier work
hPKG II 41–418 G356E = molecular target: T5, hPKG II 41–418 G356E (Homo sapiens, UniProt Q13237, G356E); assay: Competitive SPR, PKG II R domain with site B disabled; format: binding
T5 sequence (Q13237 41-418 G356E): T4 sequence (Q13237 41-418) with G316E

hPKG Iβ 1–351 G182E = molecular target: T6, hPKG Iβ 1–351 G182E (Homo sapiens, UniProt Q13976, G167E); assay: Competitive SPR, PKG Iβ R domain with site A disabled; format: binding; settings: own affinity data
T6 sequence (Q13976 1-351 isoform Q13976-2 G182E): T1 sequence (Q13976 1-351 isoform Q13976-2 G306E) with G182E, E306G

hPKG Iβ 1–351 wt = molecular target: T7, hPKG Iβ 1–351 wt (Homo sapiens, UniProt Q13976); assay: Competitive SPR
T7 sequence (Q13976 1-351 isoform Q13976-2): T1 sequence (Q13976 1-351 isoform Q13976-2 G306E) with E306G

Activation constant Ka ± SEM (hPKG Iβ 5–676) | Activation constant Ka ± SEM (hPKG II 1–762) | Selectivity for PKG II (EC50 compared to cGMP) (hPKG II 41–418 wt; wild type R domain, SPR) | Reduction of EC50 at A site of PKG II compared to cGMP (hPKG II 41–418 G356E) [fold] | Binding to B site, fold stronger than cGMP (hPKG Iβ 1–351 G182E) | Isotype selectivity in activating, PKG Iβ (hPKG Iβ 5–676; selective in activating PKG Iβ) | Isotype selectivity in binding, PKG Iβ (hPKG Iβ 1–351 wt; selective in binding PKG Iβ) | Selectivity for PKG Iβ (EC50 compared to cGMP) (hPKG Iβ 1–351 wt; wild type R domain, SPR) | SMILES | Binding to A site, fold stronger than cGMP (hPKG Iβ 1–351 G306E) | Isotype selectivity in activating, PKG II (hPKG II 1–762) | EC50 (PKG II) [nM] | Isotype selectivity in binding, PKG II (hPKG II 41–418 wt) | Binding to slowly exchanging site (A site), fold stronger than cGMP (PKG I) [fold] | EC50 (PKG Iβ) [nM] | Binding to B site, fold stronger than cGMP (PKG I; rapidly exchanging site) [fold]
 |  |  |  |  |  |  |  | Nc1nc2c(ncn2[C@@H]2O[C@@H]3COP(=O)(O)O[C@H]3[C@H]2O)c(=O)[nH]1 [cGMP, Cyclic GMP] |  |  | 40 to 360 |  |  | 250 | 
249 ± 17 nM (3) | 22 ± 3 nM (4) | ~ 19 fold | > 50 |  |  |  |  | Nc1nc2c(nc(Sc3ccc(Cl)cc3)n2[C@@H]2O[C@@H]3COP(=O)(O)O[C@H]3[C@H]2O)c(=O)[nH]1 [8-pCPT-cGMP, 8-(4-chlorophenylthio)guanosine-3′-5′-cyclic monophosphate] |  | ~ 10 fold |  | 40–50 fold |  | 440 | 
18 ± 2 nM (3) | 225 ± 13 nM (3) |  |  | over 50 fold | ~ 10 fold | 40–50 fold | ~ 40 fold | O=c1c2ncn([C@@H]3O[C@@H]4COP(=O)(O)O[C@H]4[C@H]3O)c2nc2[nH]c(-c3ccccc3)cn12 [PET-cGMP, β-phenyl-1,N2-ethenoguanosine 3′,5′-monophosphate] |  |  |  |  |  | 20 | 10

SMILES | Activation constant Ka ± SEM (hPKG Iβ 5–676) | Activation constant Ka ± SEM (hPKG II 1–762) | Selectivity for PKG II (EC50 compared to cGMP) (hPKG II 41–418 wt; wild type R domain, SPR) | Reduction of EC50 at A site of PKG II compared to cGMP (hPKG II 41–418 G356E) [fold] | Binding to B site, fold stronger than cGMP (hPKG Iβ 1–351 G182E) | Isotype selectivity in activating, PKG Iβ (hPKG Iβ 5–676; selective in activating PKG Iβ) | Isotype selectivity in binding, PKG Iβ (hPKG Iβ 1–351 wt; selective in binding PKG Iβ) | Selectivity for PKG Iβ (EC50 compared to cGMP) (hPKG Iβ 1–351 wt; wild type R domain, SPR) | Binding to A site, fold stronger than cGMP (hPKG Iβ 1–351 G306E) | Isotype selectivity in activating, PKG II (hPKG II 1–762) | EC50 (PKG II) [nM] | Isotype selectivity in binding, PKG II (hPKG II 41–418 wt) | Binding to slowly exchanging site (A site), fold stronger than cGMP (PKG I) [fold] | EC50 (PKG Iβ) [nM] | Binding to B site, fold stronger than cGMP (PKG I; rapidly exchanging site) [fold]
Nc1nc2c(nc(Br)n2[C@@H]2O[C@@H]3COP(=O)(O)O[C@H]3[C@H]2O)c(=O)[nH]1 [8-Br-cGMP, 8-bromoguanosine 3′,5′-cyclic monophosphate] | 206 ± 13 nM (3) |  |  |  |  |  |  |  | over 2 fold | ~ 4 fold | 25 | ~ 10 fold | 3.4 |  | 
